Test results published in patent publication US5482948A, “Pyridyl derivatives and pharmaceutical compositions comprising these compounds” (Dr. Karl Thomae GmbH, priority 1991, dated 1996).

What was measured:
[1] = biological target: T1, Thromboxane (Homo sapiens, UniProt P21731); assay: Thromboxane-antagonistic activity (displacement of 3H-labelled ligand on human platelets); format: binding; conditions: human platelet suspension, 60 minutes at ambient temperature
T1 construct: endogenous in cells; host or cells: human platelets (platelet-rich plasma passed through Sepharose 2B)
T1 sequence (P21731 1-343): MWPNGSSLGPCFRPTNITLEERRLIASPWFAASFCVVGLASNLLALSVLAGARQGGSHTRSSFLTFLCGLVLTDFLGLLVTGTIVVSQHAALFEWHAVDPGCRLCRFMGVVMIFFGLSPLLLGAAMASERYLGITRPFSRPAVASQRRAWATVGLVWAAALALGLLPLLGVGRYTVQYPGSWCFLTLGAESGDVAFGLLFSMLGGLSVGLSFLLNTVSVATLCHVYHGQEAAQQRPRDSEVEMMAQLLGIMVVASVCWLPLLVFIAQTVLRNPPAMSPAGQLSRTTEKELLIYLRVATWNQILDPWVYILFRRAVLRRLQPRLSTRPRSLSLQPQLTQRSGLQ
Description: Thromboxane-antagonistic Activity
Venous human blood is anti-coagulated with 13 mM Na3 citrate and centrifuged for 10 minutes at 170×g. The supernatant platelet-rich plasma is passed through a Sepharose 2B column in order to remove the plasma proteins. Aliquots of the platelet suspension obtained are incubated with the test substance, the ligand (^3 H-labelled) and a marker (^14 C-labelled) for 60 minutes at ambient temperature and then centrifuged for 20 seconds at 10,000×g. The supernatant is removed and the pellet is dissolved in NaOH. The ^3 H activity in the supernatant corresponds to the free ligand, ^14 C gives the concentration of the marker. ^3 H in the pellet corresponds to the bound ligand whilst ^14 C is used to correct for the ligand in the extracellular space. After the process has been repeated, the displacement curve is determined from the binding values for different concentrations of the test substance and the IC50 is determined.

[2] = tested on: thrombocyte aggregation; assay: Antithrombotic activity: collagen-induced aggregation in platelet-rich plasma (Born and Cross); format: cell-based; conditions: Homo sapiens, 10 min; platelet-rich plasma from healthy volunteers; incubated 10 minutes at 37° C.; 50% change in optical density; read-out: Inhibition of collagen-induced aggregation EC50
Description: The thrombocyte aggregation is measured using the method of Born and Cross (J. Physiol. 170, 397 (1964)) in platelet-rich plasma taken from healthy volunteers. To inhibit coagulation, the blood is mixed with 3.14% strength sodium citrate in a ratio by volume of 1:10.
Collagen-induced Aggregation
The pattern of decrease in the optical density of the platelet suspension is photometrically measured and recorded after the addition of the aggregation-triggering substance. The rate of aggregation is concluded from the angle of inclination of the density curve. The point on the curve where there is greatest light transmittance is used to calculate the "optical density".
The quantity of collagen used is as little as possible but sufficient to produce an irreversible reaction curve. Standard commercial collagen produced by Hormonchemie of Munich is used. Before the addition of the collagen the plasma is incubated for 10 minutes with the substance at 37° C.
From the measurements obtained an EC50 is determined by plotting a graph, and indicates a 50% change in the "optical density" in terms of the inhibition of aggregation.

[3] = biological target: T2, thromboxane synthetase (Homo sapiens, UniProt P24557); assay: Inhibitory effect on thromboxane synthetase (TXB2 formation in human platelet suspension); format: cell-based; conditions: 10 minutes at ambient temperature, then 14C-labelled arachidonic acid 10 minutes, read-out: Inhibition of thromboxane synthetase IC50
T2 construct: endogenous in cells; host or cells: human platelets (platelet-rich plasma passed through Sepharose 2B)
T2 sequence (P24557 1-533): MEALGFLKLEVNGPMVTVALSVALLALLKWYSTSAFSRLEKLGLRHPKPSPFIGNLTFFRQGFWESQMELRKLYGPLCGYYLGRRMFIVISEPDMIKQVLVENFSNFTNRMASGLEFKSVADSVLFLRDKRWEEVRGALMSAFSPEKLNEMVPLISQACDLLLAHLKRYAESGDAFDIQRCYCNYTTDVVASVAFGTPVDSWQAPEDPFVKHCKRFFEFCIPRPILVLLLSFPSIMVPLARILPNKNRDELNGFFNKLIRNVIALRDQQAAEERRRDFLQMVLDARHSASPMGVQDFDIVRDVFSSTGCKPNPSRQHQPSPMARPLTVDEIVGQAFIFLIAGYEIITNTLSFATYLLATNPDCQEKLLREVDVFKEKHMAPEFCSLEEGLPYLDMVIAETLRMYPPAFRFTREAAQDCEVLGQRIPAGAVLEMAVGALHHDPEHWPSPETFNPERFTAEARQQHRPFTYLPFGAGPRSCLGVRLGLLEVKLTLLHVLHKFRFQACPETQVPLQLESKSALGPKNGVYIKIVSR
Description: Determining the Inhibitory Effect on Thromboxane Synthetase
Venous human blood is anti-coagulated with 13 mM Na3 citrate and centrifuged for 10 minutes at 170×g. The supernatant platelet-rich plasma is passed through a Sepharose 2B column in order to remove the plasma proteins. Aliquots of the platelet suspension obtained are incubated with the test substance or with a solvent as control for 10 minutes at ambient temperature and after the addition of ^14 C-labelled arachidonic acid incubation is continued for a further 10 minutes. After this has been stopped with 50 μl of citric acid, extraction is carried out 3 times with 500 μl of ethyl acetate and the combined extracts are distilled off with nitrogen. The residue is taken up in ethyl acetate, placed on TLC film and separated with chloro-form:methanol:glacial acetic acid:water (90:8:1:0.8, v/v/v/v). The dried TLC films are placed on X-ray film for 3 days, the autoradiograms were developed and the active zones were marked on the film using the autoradiograms. After cutting out, the activity is measured in a scintillation counter and the inhibition of the formation of TXB2 is calculated. The IC50 is determined by linear interpolation.

| IC50 [1] [nM] | IC50 [3] [nM] | SMILES | EC50 [2] [nM] |
| --- | --- | --- | --- |
| 17 | 4 | N#CN=C(Nc1cccc(/C(=C\CCCC(=O)O)c2cccnc2)c1)N[C@@H]1C[C@H]2CC[C@@H]1C2 (relative stereo) [E, 5E-6-(3-(2-cyano-3-(exo-norborn-2-yl)guanidino)phenyl)-6-(3-pyridyl)hex-5-enoic acid] | 750 |
| 17 | 380 | N#CN=C(Nc1cccc(/C(=C\CCCC(=O)O)c2cccnc2)c1)NC1CC1 [A, 5E-6-(3-(2-cyano-3-cyclopropyl-guanidino)phenyl)-6-(3-pyridyl)hex-5-enoicacid] | – |
| 11 | – | CC(C)(C)NC(=NC#N)Nc1cccc(/C(=C\CCCC(=O)O)c2cccnc2)c1 [B, 5E-6-(3-(2-cyano-3-tert.butyl-guanidino)phenyl)-6-(3-pyridyl)hex-5-enoic acid] | 500 |
| 30 | 3 | N#CN=C(Nc1cccc(/C(=C\CCCC(=O)O)c2cccnc2)c1)NC1CCCC1 [C, 5E-6-(3-(2-cyano-3-cyclopentyl-guanidino)phenyl)-6-(3-pyridyl)hex-5-enoicacid] | 530 |
| 18 | 24 | CC(C)NC(=NC#N)Nc1cccc(/C(=C\CCCC(=O)O)c2cccnc2)c1 [D, 5E-6-(3-(2-cyano-3-isopropyl-guanidino)phenyl)-6-(3-pyridyl)hex-5-enoic acid] | – |
| 27 | 3 | CC(C)CCNC(=NC#N)Nc1cccc(/C(=C\CCCC(=O)O)c2cccnc2)c1 [Example I, 5E-6-(3-(2-cyano-3-(3-methylbutyl)guanidino)phenyl)-6-(3-pyridyl)hex-5-enoic acid] | 690 |
| 55 | 4 | CC(C)(C)NC(=NS(=O)(=O)c1ccccc1)Nc1cccc(/C(=C\CCCC(=O)O)c2cccnc2)c1 [Example V, 5E-6-(3-(3-tert.butyl-2-phenylsulphonyl-guanidino)phenyl)-6-(3-pyridyl)hex-5-enoic acid] | 3000 |
| 7 | 30 | CC(C)CNC(=NC#N)Nc1cccc(/C(=C\CCCC(=O)O)c2cccnc2)c1 [F, 5E-6-(3-(2-cyano-3-(2-methylpropyl)guanidino)phenyl)-6-(3-pyridyl)hex-5-enoic acid] | 350 |
| 22 | 14 | CC(C)(C)CNC(=NC#N)Nc1cccc(/C(=C\CCCC(=O)O)c2cccnc2)c1 [G, 5E-6-(3-(2-cyano-3-neopentyl-guanidino)phenyl)-6-(3-pyridyl)hex-5-enoic acid] | 260 |
| 25 | 5 | CCCCCNC(=NC#N)Nc1cccc(/C(=C\CCCC(=O)O)c2cccnc2)c1 [H, 5E-6-(3-(2-cyano-3-pentyl-guanidino)phenyl)-6-(3-pyridyl)hex-5-enoic acid] | 640 |
| 2 | 30 | CC(C)CNC(Nc1cccc(/C(=C\CCCC(=O)O)c2cccnc2)c1)=C(C#N)C#N [J, 5E-6-(3-(2,2-dicyano-1-(2-methylpropylamino)ethyleneamino)phenyl)-6-(3-pyridyl)hex-5-enoic acid] | 120 |
| 2 | 45 | CC(C)NC(Nc1cccc(/C(=C\CCCC(=O)O)c2cccnc2)c1)=C(C#N)C#N [K, 5E-6-(3-(2,2-dicyano-1-isopropylaminoethyleneamino)phenyl)-6-(3-pyridyl)hex-5-enoic acid] | 20 |
| 15 | 31 | CC(C)CCNC(Nc1cccc(/C(=C\CCCC(=O)O)c2cccnc2)c1)=C(C#N)C#N [L, 5E-6-(3-(2,2-dicyano-1-(3-methylbutylamino)ethyleneamino)phenyl)-6-(3-pyridyl)hex-5-enoic acid] | 1200 |
| 1 | 33 | N#CC(C#N)=C(Nc1cccc(/C(=C\CCCC(=O)O)c2cccnc2)c1)NC1CCCC1 [M, 5E-6-(3-(2,2-dicyano-1-cyclopentylaminoethyleneamino)-phenyl)-6-(3-pyridyl)hex-5-enoic acid] | 50 |
| 3 | 44 | CC(C)(C)CNC(Nc1cccc(/C(=C\CCCC(=O)O)c2cccnc2)c1)=C(C#N)C#N [N, 5E-6-(3-(2,2-dicyano-1-neopentylaminoethyleneamino)phenyl)-6-(3-pyridyl)hex-5-enoic acid] | 620 |
| 62 | 65 | N#CC(C#N)=C(Nc1cccc(/C(=C\CCCC(=O)O)c2cccnc2)c1)NC1CC1 [O, 5E-6-(3-(2,2-dicyano-1-cyclopropylaminoethyleneamino)phenyl)-6-(3-pyridyl)hex-5-enoic acid] | 40 |
| 37 | 40 | CCCNC(Nc1cccc(/C(=C\CCCC(=O)O)c2cccnc2)c1)=C(C#N)C#N [P, 5E-6-(3-(2,2-dicyano-1-propylamino-ethyleneamino)phenyl)-6-(3-pyridyl)hex-5-enoic acid] | 50 |
| 50 | 50 | CC(C)(C)NC(Nc1cccc(/C(=C\CCCC(=O)O)c2cccnc2)c1)=C(C#N)C#N [Q, 5E-6-(3-(2,2-dicyano-1-tert.butylaminoethyleneamino)phenyl)-6-(3-pyridyl)hex-5-enoic acid] | 120 |
| 1300 | 180 | N#CN=C(Nc1ccc(/C(=C\CCCC(=O)O)c2cccnc2)cc1)NC1CCCCC1 [R, 5E-6-(4-(2-cyano-3-cyclohexyl-guanidino)phenyl)-6-(3-pyridyl)hex-5-enoic acid] | 31000 |
| 120 | 37 | CC(C)(C)NC(=NC#N)Nc1cccc(C(CCCCC(=O)O)c2cccnc2)c1 (stereo not drawn) [S, 6-(3-(2-cyano-3-tert.butyl-guanidino)phenyl)-6-(3-pyridyl)hexanoic acid] | 1100 |
| 280 | 290 | CC(C)(C)CNC(=C[N+](=O)[O-])Nc1cccc(/C(=C\CCCC(=O)O)c2cccnc2)c1 [T, 5E-6-(3-(1-neopentylamino-2-nitro-ethyleneamino)phenyl)-6-(3-pyridyl)hex-5-enoic acid] | 9500 |
| 50 | 7 | CC(C)(C)NC(=NC#N)NCCc1ccc(C(=CCCCC(=O)O)c2cccnc2)cc1 [U, E/Z-6-(4-(2-(2-cyano-3-tert.butyl-guanidino)ethyl)phenyl)-6-(3-pyridyl)hex-5-enoic acid] | 1200 |
